# According to patent US10383838B2, “Concentrated liquid diet” (The Nisshin OilliO Group, Ltd., priority 2008, dated 2019):
# System: gastric mucosa of rat
# Assay: Test for investigating irritation of gastric mucosa in rat
# Format: in vivo, Wistar rats
# Conditions: oral after fasting 18 hrs, dose 2 g/kg BW, stomach observed 1 hour after administration
# Method: Five male 10-week old Wistar rats having a body weight of about 200 g (Japan SLC, Inc.) as one test group were subjected to tests by administration. […] The amount of the triglyceride administered was 2 g per kg of body weight. After placing at rest for 1 hour following the administration, an incision was made in the abdomen under anesthesia, and the stomach was extirpated. Then, the extirpated stomach was incised along the greater curvature, and the gastric mucosa was washed with physiological saline and visually observed, with use of a loupe as needed. It should be noted that evaluation in connection with the irritation of gastric mucosa was made in accordance with a method described in a document (Yakugaku Zasshi 89 (8): 1114-1118, 1978). The criteria of evaluation are shown below.
# (−): Nine or less areas of patchy redness found.
# (+): Ten or more areas of patchy redness found, and sum total of each length of erosion being no greater than 2 mm.
# (++): Twenty or more areas of patchy redness found, and sum total of each length of erosion being no greater than 10 mm.
# (+++): Sum total of each length of ulcer, or erosion being no less than 10 mm.
# It is to be noted that when evaluation was made as (−), the number of areas of patchy redness was counted.
smiles,measurement,value
"CCO [Positive Control Group, ethanol]",Irritation of gastric mucosa,"(+++) (Sum total of each length of ulcer, or erosion being no less than 10 mm.)"
